Experiment [1] has as its target Lactotransferrin (Homo sapiens) (UniProt P02788). Briefly: Binding affinity to biotin-labeled lactoferrin (unknown origin) at 10 ug/ml in pH 5.6 MES buffer by fluorescence microarray method.
Experiment [2] concerns Maackia amurensis. Kind of experiment: Binding affinity to biotin-labeled Maackia amurensis agglutinin in pH 7.4 Tris buffer by fluorescence microarray method.
In experiment [3] the target is Lactotransferrin (Homo sapiens) (UniProt P02788). Kind of experiment: Binding affinity to biotin-labeled lactoferrin (unknown origin) at 10 ug/ml in pH 7.4 Tris buffer by fluorescence microarray method.
The test system of experiment [4] is Datura stramonium. Briefly: Binding affinity to biotin-labeled Datura stramonium agglutinin in pH 7.4 Tris buffer by fluorescence microarray method.
The test system of experiment [5] is Triticum aestivum. Kind of experiment: Binding affinity to biotin-labeled Wheat germ agglutinin in pH 7.4 Tris buffer by fluorescence microarray method.
Experiment [6] deals with Erythrina crista-galli. Kind of experiment: Binding affinity to biotin-labeled Erythrina crista-galli agglutinin in pH 7.4 Tris buffer by fluorescence microarray method.
Experiment [7] concerns the target Laminin subunit alpha-1 (Homo sapiens) (UniProt P25391). Briefly: Binding affinity to biotin-labeled human recombinant laminin-1 at 10 ug/ml in pH 7.4 Tris buffer by fluorescence microarray method.
The species entered for experiment [8] is Homo sapiens. Briefly: Binding affinity to biotin-labeled human recombinant laminin-2 at 10 ug/ml in pH 7.4 Tris buffer by fluorescence microarray method.
The test system of experiment [9] is Canavalia ensiformis. Briefly: Binding affinity to biotin-labeled Canavalia ensiformis agglutinin in pH 7.4 Tris buffer by fluorescence microarray method.
The species entered for experiment [10] is Homo sapiens. Kind of experiment: Binding affinity to biotin-labeled human recombinant laminin-2 at 10 ug/ml in 5.6 MES buffer by fluorescence microarray method.
The nature of experiment [11]: Binding affinity to biotin-labeled Agaricus bisporus agglutinin in pH 7.4 Tris buffer by fluorescence microarray method.
Experiment [12] deals with Sambucus racemosa subsp. sieboldiana. Kind of experiment: Binding affinity to biotin-labeled Sambucus sieboldiana agglutinin in pH 7.4 Tris buffer by fluorescence microarray method.
The test system of experiment [13] is Arachis hypogaea. Kind of experiment: Binding affinity to biotin-labeled Arachis hypogaea agglutinin in pH 7.4 Tris buffer by fluorescence microarray method.
The target of experiment [14] is Laminin subunit alpha-1 (Homo sapiens) (UniProt P25391). Kind of experiment: Binding affinity to biotin-labeled human recombinant laminin-1 at 10 ug/ml in pH 5.6 MES buffer by fluorescence microarray method.

The source made the active and inactive calls. The rule behind the calls is not given here. Peptide text beside a SMILES is read from it. * marks the point of attachment. X2 = CC(=O)N[C@H]1[C@H](O[C@H]2[C@@H](O)[C@H](O)[C@@H](CO)O[C@@H]2*)O[C@H](CO)[C@@H](O[C@@H]2O[C@H](CO)[C@H](O)[C@H](O)[C@H]2O)[C@@H]1O; GlcNAc(β1-2)αMan = CC(=O)N[C@H]1[C@H](O[C@H]2[C@@H](O)[C@H](O)[C@@H](CO)O[C@@H]2*)O[C@H](CO)[C@@H](O)[C@@H]1O; Hexanoyl(5-oxo) = CC(=O)CCCC(=O)*

Chain of Lactotransferrin (Homo sapiens) (P02788 whole entry): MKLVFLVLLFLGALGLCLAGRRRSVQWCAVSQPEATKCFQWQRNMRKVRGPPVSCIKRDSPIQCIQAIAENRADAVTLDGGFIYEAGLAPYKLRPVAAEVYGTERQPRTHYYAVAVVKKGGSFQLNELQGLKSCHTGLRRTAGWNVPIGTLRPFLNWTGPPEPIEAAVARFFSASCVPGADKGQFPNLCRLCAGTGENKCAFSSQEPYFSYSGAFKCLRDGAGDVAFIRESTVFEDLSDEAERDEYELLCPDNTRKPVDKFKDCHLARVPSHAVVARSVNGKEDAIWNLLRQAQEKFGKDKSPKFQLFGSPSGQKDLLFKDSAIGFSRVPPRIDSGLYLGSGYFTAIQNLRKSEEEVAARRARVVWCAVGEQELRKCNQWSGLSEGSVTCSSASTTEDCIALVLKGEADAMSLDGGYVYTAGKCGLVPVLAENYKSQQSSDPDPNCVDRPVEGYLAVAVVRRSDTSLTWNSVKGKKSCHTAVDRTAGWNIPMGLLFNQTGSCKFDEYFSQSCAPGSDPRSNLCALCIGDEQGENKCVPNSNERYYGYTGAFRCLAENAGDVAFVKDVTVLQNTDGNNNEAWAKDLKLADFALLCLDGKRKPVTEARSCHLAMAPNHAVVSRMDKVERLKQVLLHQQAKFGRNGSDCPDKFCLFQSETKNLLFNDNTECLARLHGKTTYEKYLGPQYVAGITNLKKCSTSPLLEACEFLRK
Chain of Laminin subunit alpha-1 (Homo sapiens) (P25391 whole entry): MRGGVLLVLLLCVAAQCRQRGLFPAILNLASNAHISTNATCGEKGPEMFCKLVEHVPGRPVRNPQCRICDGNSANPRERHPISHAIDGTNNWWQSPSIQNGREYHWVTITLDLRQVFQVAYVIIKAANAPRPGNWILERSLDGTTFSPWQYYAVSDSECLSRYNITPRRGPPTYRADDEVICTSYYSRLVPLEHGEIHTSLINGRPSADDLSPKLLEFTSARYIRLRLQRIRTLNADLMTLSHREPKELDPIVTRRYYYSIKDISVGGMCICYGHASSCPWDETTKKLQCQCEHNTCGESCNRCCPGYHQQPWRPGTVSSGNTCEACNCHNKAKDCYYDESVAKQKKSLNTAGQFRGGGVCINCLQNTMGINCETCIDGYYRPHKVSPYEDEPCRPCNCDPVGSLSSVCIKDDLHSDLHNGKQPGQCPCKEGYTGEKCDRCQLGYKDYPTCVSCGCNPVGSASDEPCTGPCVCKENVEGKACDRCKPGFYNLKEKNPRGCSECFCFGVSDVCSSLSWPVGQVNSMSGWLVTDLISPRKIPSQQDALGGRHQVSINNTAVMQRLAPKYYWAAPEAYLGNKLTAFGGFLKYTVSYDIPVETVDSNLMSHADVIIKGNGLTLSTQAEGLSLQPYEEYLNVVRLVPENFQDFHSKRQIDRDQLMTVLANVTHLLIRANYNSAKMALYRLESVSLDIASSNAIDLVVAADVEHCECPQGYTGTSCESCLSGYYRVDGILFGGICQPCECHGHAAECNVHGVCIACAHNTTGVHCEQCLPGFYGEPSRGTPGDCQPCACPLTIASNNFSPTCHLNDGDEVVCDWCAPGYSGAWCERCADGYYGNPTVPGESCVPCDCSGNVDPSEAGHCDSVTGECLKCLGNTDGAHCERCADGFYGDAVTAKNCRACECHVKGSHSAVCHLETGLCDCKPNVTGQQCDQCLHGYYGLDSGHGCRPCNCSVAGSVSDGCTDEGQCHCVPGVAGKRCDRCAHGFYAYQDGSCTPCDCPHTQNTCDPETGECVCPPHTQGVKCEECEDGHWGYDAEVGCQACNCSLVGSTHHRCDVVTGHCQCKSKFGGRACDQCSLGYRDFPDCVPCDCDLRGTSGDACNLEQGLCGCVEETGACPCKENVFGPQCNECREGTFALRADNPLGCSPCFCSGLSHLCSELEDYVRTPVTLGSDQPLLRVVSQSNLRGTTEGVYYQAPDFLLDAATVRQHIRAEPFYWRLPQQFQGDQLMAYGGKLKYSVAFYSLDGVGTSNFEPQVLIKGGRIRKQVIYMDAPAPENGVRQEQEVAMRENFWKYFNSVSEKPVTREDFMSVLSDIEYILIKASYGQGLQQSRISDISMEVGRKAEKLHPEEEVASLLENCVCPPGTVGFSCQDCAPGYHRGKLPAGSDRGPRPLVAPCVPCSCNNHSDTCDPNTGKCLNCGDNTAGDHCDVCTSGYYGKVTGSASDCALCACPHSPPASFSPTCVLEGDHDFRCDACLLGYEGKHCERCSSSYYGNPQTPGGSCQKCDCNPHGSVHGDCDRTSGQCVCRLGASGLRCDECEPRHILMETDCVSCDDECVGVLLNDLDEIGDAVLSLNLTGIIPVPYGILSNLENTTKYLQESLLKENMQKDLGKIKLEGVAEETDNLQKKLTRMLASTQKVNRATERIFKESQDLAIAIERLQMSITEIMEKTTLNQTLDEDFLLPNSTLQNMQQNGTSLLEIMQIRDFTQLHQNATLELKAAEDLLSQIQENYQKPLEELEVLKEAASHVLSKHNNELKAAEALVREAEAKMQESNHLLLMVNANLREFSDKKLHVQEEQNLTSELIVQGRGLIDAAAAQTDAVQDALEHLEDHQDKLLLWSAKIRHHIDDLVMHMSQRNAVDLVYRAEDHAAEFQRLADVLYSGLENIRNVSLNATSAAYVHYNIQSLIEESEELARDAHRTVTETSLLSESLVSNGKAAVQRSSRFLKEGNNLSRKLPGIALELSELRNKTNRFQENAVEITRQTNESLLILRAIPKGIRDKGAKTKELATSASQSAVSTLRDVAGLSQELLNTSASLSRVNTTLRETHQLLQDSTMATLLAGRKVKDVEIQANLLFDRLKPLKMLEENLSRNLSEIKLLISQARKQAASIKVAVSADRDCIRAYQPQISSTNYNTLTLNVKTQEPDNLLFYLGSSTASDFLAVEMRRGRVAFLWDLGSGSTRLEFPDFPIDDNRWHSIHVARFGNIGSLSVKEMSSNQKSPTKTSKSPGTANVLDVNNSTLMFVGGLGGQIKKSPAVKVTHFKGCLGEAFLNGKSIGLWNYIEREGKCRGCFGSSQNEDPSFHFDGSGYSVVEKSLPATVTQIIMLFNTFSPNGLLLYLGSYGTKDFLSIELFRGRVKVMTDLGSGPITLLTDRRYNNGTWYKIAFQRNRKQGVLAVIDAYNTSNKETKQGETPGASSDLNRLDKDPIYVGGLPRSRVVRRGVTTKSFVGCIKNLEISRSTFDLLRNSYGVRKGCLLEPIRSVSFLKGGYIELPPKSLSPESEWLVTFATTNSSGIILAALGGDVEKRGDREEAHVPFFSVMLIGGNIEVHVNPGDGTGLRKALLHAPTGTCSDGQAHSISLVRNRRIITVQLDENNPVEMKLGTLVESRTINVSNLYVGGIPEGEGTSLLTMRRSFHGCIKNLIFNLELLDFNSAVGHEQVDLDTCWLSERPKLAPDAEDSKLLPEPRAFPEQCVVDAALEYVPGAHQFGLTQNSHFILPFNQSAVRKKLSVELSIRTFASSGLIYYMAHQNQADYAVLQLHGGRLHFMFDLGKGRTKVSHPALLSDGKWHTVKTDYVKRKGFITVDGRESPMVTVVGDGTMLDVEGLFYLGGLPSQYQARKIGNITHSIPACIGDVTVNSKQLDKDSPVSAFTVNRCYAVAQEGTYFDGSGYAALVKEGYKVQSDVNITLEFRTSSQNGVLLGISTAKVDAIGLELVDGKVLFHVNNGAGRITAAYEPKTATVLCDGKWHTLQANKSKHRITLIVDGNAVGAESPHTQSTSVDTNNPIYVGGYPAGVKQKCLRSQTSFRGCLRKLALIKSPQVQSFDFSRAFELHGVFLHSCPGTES

Regarding `CC[C@H](C)[C@H](NC(=O)[C@H](C)NC(=O)CNC(=O)[C@H](CCCNC(=N)N)NC(=O)[C@@H](NC(=O)CCCC(C)=O)[C@@H](C)O)C(=O)N[C@H](C(=O)N[C@@H](CCC(N)=O)C(=O)N[C@H](C(=O)N1CCC[C@H]1C(=O)N[C@H](C(=O)N[C@@H](CC(C)C)C(=O)NCC(=O)N1CCC[C@H]1C(=O)N[C@H](C(=O)N[C@@H](CCC(N)=O)C(=O)N1CCC[C@H]1C(=O)N[C@H](C(=O)N[C@@H](CCCNC(=N)N)C(=O)N[C@H](C(N)=O)C(C)C)[C@@H](C)O[C@H]1O[C@H](CO)[C@@H](O)[C@H](O)[C@@H]1O[C@@H]1O[C@H](CO)[C@@H](O[C@@H]2O[C@H](CO)[C@H](O)[C@H](O)[C@H]2O)[C@H](O)[C@H]1NC(C)=O)[C@@H](C)CC)[C@@H](C)O)[C@@H](C)O[C@H]1O[C@H](CO)[C@@H](O)[C@H](O)[C@@H]1O[C@@H]1O[C@H](CO)[C@@H](O[C@@H]2O[C@H](CO)[C@H](O)[C@H](O)[C@H]2O)[C@H](O)[C@H]1NC(C)=O)[C@@H](C)CC` ({Hexanoyl(5-oxo)}-TRGAIIQT(X2)PTLGPIQPT(X2)RV-NH2), the result in [1], in [5], in [6], in experiment [7], in experiment [9] and in experiment [10] was Active. Also, the outcome in experiment [11], in [12], in experiment [13] and in experiment [14] was Active. Also, the result in experiment [2], in [3], in [4] and in [8] was inactive.

Consider `CC[C@H](C)[C@H](NC(=O)[C@H](C)NC(=O)CNC(=O)[C@H](CCCNC(=N)N)NC(=O)[C@@H](NC(=O)CCCC(C)=O)[C@@H](C)O)C(=O)N[C@H](C(=O)N[C@@H](CCC(N)=O)C(=O)N[C@H](C(=O)N1CCC[C@H]1C(=O)N[C@H](C(=O)N[C@@H](CC(C)C)C(=O)NCC(=O)N1CCC[C@H]1C(=O)N[C@H](C(=O)N[C@@H](CCC(N)=O)C(=O)N1CCC[C@H]1C(=O)N[C@H](C(=O)N[C@@H](CCCNC(=N)N)C(=O)N[C@H](C(N)=O)C(C)C)[C@@H](C)O)[C@@H](C)CC)[C@@H](C)O)[C@@H](C)O[C@H]1O[C@H](CO)[C@@H](O)[C@H](O)[C@@H]1O[C@@H]1O[C@H](CO)[C@@H](O[C@@H]2O[C@H](CO)[C@H](O)[C@H](O)[C@H]2O)[C@H](O)[C@H]1NC(C)=O)[C@@H](C)CC` ({Hexanoyl(5-oxo)}-TRGAIIQT(X2)PTLGPIQPTRV-NH2), for which the result in experiment [1], in experiment [5], in experiment [6], in [7], in experiment [9] and in experiment [10] was Active. For the same compound, the result in [11], in experiment [12], in experiment [13] and in experiment [14] was Active. The result in experiment [2], in experiment [3], in experiment [4] and in [8] was inactive.

On to `CC[C@H](C)[C@H](NC(=O)[C@H](C)NC(=O)CNC(=O)[C@H](CCCNC(=N)N)NC(=O)[C@@H](NC(=O)CCCC(C)=O)[C@@H](C)O)C(=O)N[C@H](C(=O)N[C@@H](CCC(N)=O)C(=O)N[C@H](C(=O)N1CCC[C@H]1C(=O)N[C@H](C(=O)N[C@@H](CC(C)C)C(=O)NCC(=O)N1CCC[C@H]1C(=O)N[C@H](C(=O)N[C@@H](CCC(N)=O)C(=O)N1CCC[C@H]1C(=O)N[C@H](C(=O)N[C@@H](CCCNC(=N)N)C(=O)N[C@H](C(N)=O)C(C)C)[C@@H](C)O[C@H]1O[C@H](CO)[C@@H](O)[C@H](O)[C@@H]1O[C@@H]1O[C@H](CO)[C@@H](O)[C@H](O)[C@H]1NC(C)=O)[C@@H](C)CC)[C@@H](C)O[C@H]1O[C@H](CO)[C@@H](O)[C@H](O)[C@@H]1O[C@@H]1O[C@H](CO)[C@@H](O)[C@H](O)[C@H]1NC(C)=O)[C@@H](C)O)[C@@H](C)CC` ({Hexanoyl(5-oxo)}-TRGAIIQTPT(GlcNAc(β1-2)αMan)LGPIQPT(GlcNAc(β1-2)αMan)RV-NH2), for which the outcome in experiment [1], in [5], in experiment [6], in experiment [7], in experiment [9] and in experiment [10] was Active. In addition, the result in experiment [11], in experiment [12], in experiment [13] and in experiment [14] was Active. Moreover, the outcome in experiment [2], in experiment [3], in [4] and in [8] was inactive.

As to `CC[C@H](C)[C@H](NC(=O)[C@H](C)NC(=O)CNC(=O)[C@H](CCCNC(=N)N)NC(=O)[C@@H](NC(=O)CCCC(C)=O)[C@@H](C)O)C(=O)N[C@H](C(=O)N[C@@H](CCC(N)=O)C(=O)N[C@H](C(=O)N1CCC[C@H]1C(=O)N[C@H](C(=O)N[C@@H](CC(C)C)C(=O)NCC(=O)N1CCC[C@H]1C(=O)N[C@H](C(=O)N[C@@H](CCC(N)=O)C(=O)N1CCC[C@H]1C(=O)N[C@H](C(=O)N[C@@H](CCCNC(=N)N)C(=O)N[C@H](C(N)=O)C(C)C)[C@@H](C)O)[C@@H](C)CC)[C@@H](C)O[C@H]1O[C@H](CO)[C@@H](O)[C@H](O)[C@@H]1O[C@@H]1O[C@H](CO)[C@@H](O)[C@H](O)[C@H]1NC(C)=O)[C@@H](C)O)[C@@H](C)CC` ({Hexanoyl(5-oxo)}-TRGAIIQTPT(GlcNAc(β1-2)αMan)LGPIQPTRV-NH2), the outcome in [1], in experiment [5], in [6], in experiment [7], in experiment [9] and in experiment [10] was Active. The result in experiment [11], in experiment [12], in experiment [13] and in experiment [14] was Active. Moreover, the result in experiment [2], in [3], in experiment [4] and in [8] was inactive.
